Test results from patent publication US6653322B1, “Therapeutic combinations of RAR antagonists and RXR agonists and use thereof” (Bristol-Myers Squibb Company, priority 1996, dated 2003).

Legend:
Type in all cases: cell-based, human
NB4 cells [1] = assay: NB4 cell differentiation (TPA-induced nitroblue tetrazolium reduction)
Method: NB4 cells were obtained from ATCC and were grown in RPMI-1640 (plus 2 mM L-glutamine) containing 100 […] penicillin and streptomycin and 8% fetal bovine serum (FBS). Cells were treated for four days with retinoid(s) or ethanol vehicle, then washed and resuspended at a density of 5×10^5 cells/ml. 50 microliter aliquots of this suspension were spread over poly-L-lysine coated slides (Sigma, St. Louis, Mo.). After washing with PBS (137 mM NaCl, 2.7 mM KCl, 4.3 mM Na2HPO4, 1.4 mM KH2PO4), the cells were fixed for 10 minutes in 2% formalin (37% formaldehyde in 15% methanol in water) at room temperature.
Following fixation, cells were washed three times in PBS and were scored by TPA (12-O-tetradecanoyl-phorbol-13-acetate, 200 ng/ml)-induced nitroblue tetrazolium reduction (Sigma Fast BCIP/NBT) for 30 minutes at 37° C. Samples were examined for cellular and nuclear morphology with an optical microscope (Diavert Leitz); the percentage of differentiated cells was determined by counting at least 300 cells for each treatment.

RARβ2 and RARγ mRNA = assay: RARβ/RARγ expression by reverse transcriptase PCR in NB4 cells; conditions: retinoid alone
Method: Total RNA was isolated and reverse transcribed in a buffer solution comprising 10 mM Tris-HCl (pH 8.3), 50 mM KCl, 2 mM MgCl2 and 1 mM of all four deoxynucleoside triphosphates, using 25 units of AMV reverse transcriptase in the presence of 50 units of RNAsin for 60 minutes at 42° C. For reverse transcription, 25 picomoles per reaction of the common antisense primer 5′-[…]-3′ (SEQ ID NO:6) for either RARα, β or γ was used. For each PCR reaction the common antisense primer, one-fourth of the reverse transcribed product and the following specific sense primers were used: […]
The amplification was carried out in a final volume of 0.1 ml, using Taq DNA polymerase (Perkin Elmer Cetus) according the manufacturer's instructions. Eighteen PCR cycles (30 seconds at 94° C., 30 seconds at 65° C. and 30 seconds at 72° C.) were performed, and a 10 microliter aliquot of each reaction was analyzed by electrophoresis on a 6% native polyacrylamide gel, which was then stained with ethidium bromide and examined by ultraviolet illumination.

NB4 cells [2] = assay: NB4 cell apoptosis (flow cytometry, DNA fragmentation); conditions: retinoid alone
Method: The cell cycle distribution and presence of “sub-2N” cells and particles in control and retinoid-treated NB4 cells were determined by cell cycle flow cytometry based on DNA content, using an EPICS Profile II cell sorter (Coulter Electronics, Inc., Hialeah, Fla.) equipped with a 15 watt argon laser tuned to an excitation wavelength of 488 nm and filter sets providing an emission wavelength of 575 nm. Cultures of untreated or retinoid-treated cells were centrifuged (250×g) and fixed in 70% ethanol and stored at −20° C. Following two washes in PBS, the cells and subcellular particles were incubated in 1 mg/ml RNase A (59 Kunitz units/mg, Sigma Chemical Co., St. Louis, Mo.) for 30 minutes at 37° C., centrifuged and resuspended in PBS at a concentration of approximately 10^6 cells per ml. Ethidium bromide was added to a final concentration of 50 micrograms/ml immediately prior to sample analysis.
The induction of apoptosis by retinoids was also determined by the appearance of a “ladder” of fragmented DNA as previously described (Nagy, L., et al., Mol. Cell. Biol. 15:3540-3551 (1995)). Cells were refed with fresh media and retinoids every 2 days, and the cell density was maintained well below saturation in order to prevent cell death due to nutrient and/or mitogen depletion. Five micrograms per lane of DNA was electrophoresed in a 1.5% agarose gel, followed by staining with ethidium bromide, and DNA bands were visualized and photographed via ultraviolet illumination of ethidium bromide fluorescence.

[3] = retinoid alone at 1 (concentration unit not given), 4 days
[4] = retinoid alone at 10 (concentration unit not given), 4 days
[5] = retinoid alone at 100 (concentration unit not given), 4 days
[6] = retinoid alone at 1000 (concentration unit not given), 4 days

SMILES	Induction of NB4 cell differentiation (NB4 cells [1]; in presence of RXR agonist SR11237)	Percentage of NB4 cells differentiated (NB4 cells [1]; retinoid alone at 0.1 (concentration unit not given), 4 days) [%]	Percentage of NB4 cells differentiated (NB4 cells [1]; retinoid alone at 0.3 (concentration unit not given), 4 days) [%]	Percentage of NB4 cells differentiated (NB4 cells [1]; retinoid alone at 0.5 (concentration unit not given), 4 days) [%]	Percentage of NB4 cells differentiated (NB4 cells [1]; [3]) [%]	Percentage of NB4 cells differentiated (NB4 cells [1]; [4]) [%]	Percentage of NB4 cells differentiated (NB4 cells [1]; [5]) [%]	Percentage of NB4 cells differentiated (NB4 cells [1]; retinoid at 0.1 +100 nM SR11237, 4 days) [%]	Percentage of NB4 cells differentiated (NB4 cells [1]; retinoid at 0.3 +100 nM SR11237, 4 days) [%]	Percentage of NB4 cells differentiated (NB4 cells [1]; retinoid at 0.5 +100 nM SR11237, 4 days) [%]	Percentage of NB4 cells differentiated (NB4 cells [1]; retinoid at 1 +100 nM SR11237, 4 days) [%]	Induction of NB4 cell differentiation (NB4 cells [1]; retinoid on its own)	Expression of RARβ2 (and RARγ) by RT-PCR (RARβ2 and RARγ mRNA)	Percentage of NB4 cells differentiated (NB4 cells [1]; [6]) [%]	Induction of NB4 cell apoptosis (NB4 cells [2])
CC1(C)CCC(C)(C)c2cc(NC(=O)c3ccc(C(=O)O)cc3)ccc21 [Am80]	significantly more efficient at inducing differentiation at low concentrations	<1	<1	<1	80	81	80	<1	20	40	80	efficiently induced differentiation	induced expression of RARβ2 (and RARγ) was confirmed	–	–
CC1=C(/C=C/C(C)=C\C=C\C(C)=C\C(=O)O)C(C)(C)CCC1 [Compound 9C-RA, 9-cis (9C-RA) retinoic acid]	–	–	–	–	<1	4	65	–	–	–	–	–	–	70	–
CC1=C(/C=C/C(C)=C/C=C/C(C)=C/C(=O)O)C(C)(C)CCC1 [T-RA, all-trans retinoic acid]	–	–	–	–	<1	<1	81	–	–	–	–	–	–	80	extensive apoptosis
